The values that follow come from patent US8859060B2, “Protective film of polarizer, polarizer and liquid crystal display device” (FUJIFILM Corporation, priority 2009, dated 2014).

Series [1] in a line: Acid dissociation constant by alkali titration in THF/water=6/4. The format is physicochemical. As to conditions: mixed solvent of THF/water=6/4 by volume at 25° C. The procedure: Preferably, the acid dissociation constant of the organic acid in a mixed solvent of THF/water=6/4 by volume at 25° C. is from 2.5 to 7, more preferably from 2.5 to 6.5, even more preferably from 3 to 5.

Series [2] is described as follows: Solubility in water at 25° C.

Values joined by “and” are separate entries in the source; they are usually repeats but may differ in a detail not shown here. Equal entries are not always repeated.

Turning to `O=C(O)CC(O)(CC(=O)O)C(=O)O` [Citric acid, citric acid, reference compound], the Acid dissociation constant in series [1] came to 4.0.

For the compound `CCC(Oc1ccc(C(C)(C)CC)cc1C(C)(C)CC)C(=O)Nc1cccc(C(=O)O)c1` (stereo not shown) [Organic acid B], the Acid dissociation constant in series [1] turned out to be 6.6.

In series [1], `O=C(O)C=Cc1ccccc1` [Cinnamic acid, cinnamic acid, reference compound] had an Acid dissociation constant of 4.7.

The compound `CC(=O)Nc1c(I)cc(I)c(C(=O)O)c1I` [Organic acid D] gave an Acid dissociation constant in series [1] of 4.4.

Compound `Nc1c(F)c(F)c(C(=O)O)c(F)c1F` [Organic acid C] gave an Acid dissociation constant in series [1] of 5.0.

Take `CCC(C)(C)c1ccc(OCCCC(=O)O)c(C(C)(C)CC)c1` [Organic acid F, reference compound]: the Acid dissociation constant in series [1] turned out to be 7.3.

As for `O=C1NS(=O)(=O)c2ccccc21` [Organic acid H], the Acid dissociation constant in series [1] is given as 2.6.

In series [1], `O=C(O)c1ccc(C(=O)O)cc1` [Terephthalic acid, reference compound] showed an Acid dissociation constant of 4.5. Further, the Solubility to water entry in series [2] is “More than 1 wt %”.

As to `O=C1NC(=O)N(Cc2ccccc2)C(=O)C1c1ccccc1` (stereo not shown) [Organic acid A], in series [1], the Acid dissociation constant is 4.0 and 3.0.
